Measurements published in patent US8835462B2, “Macrocyclic picolinamides as fungicides” (Dow AgroSciences LLC, priority 2012, dated 2014).
Like-named read-outs stand apart in the source and are kept apart here.

Experiments:
Type in all cases: in vivo
[1] = test system: Glomerella lagenarium; Anamorph: Colletotricum lagenarium; assay: Cucumber anthracnose (COLLLA) fungicidal activity; conditions: Colletotrichum orbiculare, 24 h, 1 Day Protectant, read-out: Disease Control COLLLA 1DP
Protocol: Technical grades of materials were dissolved in acetone, which were then mixed with nine volumes of water containing 110 ppm Triton X-100. The fungicide solutions were applied onto wheat seedlings using an automated booth sprayer to run-off. All sprayed plants were allowed to air dry prior to further handling. Wheat plants (variety Yuma) were grown from seed in a greenhouse in 50% mineral soil/50% soil-less Metro mix until the first leaf was fully emerged, with 7-10 seedlings per pot. These plants were inoculated with an aqueous spore suspension of Septoria tritici either prior to or after fungicide treatments. After inoculation the plants were kept in 100% relative humidity (one day in a dark dew chamber followed by two to three days in a lighted dew chamber at 20° C.) to permit spores to germinate and infect the leaf. The plants were then transferred to a greenhouse set at 20° C. for disease to develop. When disease symptoms were fully expressed on the 1st leaves of untreated plants, infection levels were assessed on a scale of 0 to 100 percent disease severity. Percent disease control was calculated using the ratio of disease severity on treated plants relative to untreated plants. Evaluation of Fungicidal Activity: Cucumber Anthracnose (Glomerella Lagenarium; Anamorph: Colletotricum Lagenarium; Bayer Code COLLLA) Cucumber seedlings (variety Bush Pickle) were propagated in soil-less Metro mix, with each pot having one plant, and used in the test when 12 to 14 days old. Test plants were inoculated with an aqueous spore suspension of Colletotricum lagenarium 24 hr after fungicide treatments. After inoculation the plants were kept in a dew room at 22° C. with 100% relative humidity for 48 hr to permit spores to germinate and infect the leaf. The plants were then transferred to a growth room set at 22° C. for disease to develop. Fungicide formulation, application and disease assessment on the sprayed leaves followed the procedures as described in the Example A.

Uncinula necator = assay: Grape powdery mildew (UNCINE) fungicidal activity; conditions: Erysiphe necator, 24 h, 1 Day Protectant, read-out: Disease Control UNCINE 1DP
Protocol: Technical grades of materials were dissolved in acetone, which were then mixed with nine volumes of water containing 110 ppm Triton X-100. The fungicide solutions were applied onto wheat seedlings using an automated booth sprayer to run-off. All sprayed plants were allowed to air dry prior to further handling. Wheat plants (variety Yuma) were grown from seed in a greenhouse in 50% mineral soil/50% soil-less Metro mix until the first leaf was fully emerged, with 7-10 seedlings per pot. These plants were inoculated with an aqueous spore suspension of Septoria tritici either prior to or after fungicide treatments. After inoculation the plants were kept in 100% relative humidity (one day in a dark dew chamber followed by two to three days in a lighted dew chamber at 20° C.) to permit spores to germinate and infect the leaf. The plants were then transferred to a greenhouse set at 20° C. for disease to develop. When disease symptoms were fully expressed on the 1st leaves of untreated plants, infection levels were assessed on a scale of 0 to 100 percent disease severity. Percent disease control was calculated using the ratio of disease severity on treated plants relative to untreated plants. Evaluation of Fungicidal Activity: Grape Powdery Mildew (Uncinula Necator; Bayer Code […]) Grape seedlings (variety Carignane) were grown in soil-less Metro mix, with one plant per pot, and used in the test when approximately one month old. Plants were inoculated 24 hr after fungicide treatment by shaking spores from infected leaves over test plants. Plants were maintained in a greenhouse set at 20° C. until disease was fully developed. Fungicide formulation, application and disease assessment on the sprayed leaves followed the procedures as described in the Example A.

[2] = test system: Mycosphaerella graminicola; Anamorph: Septoria tritici; assay: Leaf blotch of wheat (SEPTTR) fungicidal activity on wheat seedlings; conditions: Zymoseptoria tritici
Summary of the method: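 Compounds in acetone were diluted with nine volumes of water containing 110 ppm Triton X-100 and sprayed to run-off on Yuma wheat seedlings at first-leaf stage. Septoria tritici spores were inoculated before or after treatment, followed by dew chambers at 100% RH and 20 °C, then greenhouse at 20 °C. Severity (0–100%) was scored once untreated plants were fully diseased; control was calculated relative to untreated plants.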

Puccinia triticina = assay: Fungicide mobility (dropline mobility test), wheat brown rust (PUCCRT); conditions: 1 ug/leaf, disease-free zone as percent of distance from marked line to leaf tip; for Dropline Mobility Test PUCCRT 1 DPM: 1 Day Protectant Mobility; for Dropline Mobility Test PUCCRT 3 DCM: 3 Day Curative Mobility
Summary of the method: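 Yuma wheat primary leaves, held horizontal, got a 2 μl drop of EC-formulated compound in water with 110 ppm Triton X-100 on a line 5 cm from the tip; 6 replicates. Inoculation 1 day after or 3 days before application. Acropetal disease-free zone measured as percent of line-to-tip distance once control rust fully expressed.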

[3] = 24 h, 1 Day Protectant, read-out: Disease Control SEPTTR 1 DP
[4] = 72 h, 3 Day Curative, read-out: Disease Control SEPTTR 3 DC

Row | SMILES | pest or weed control at 100 ppm [1] | pest or weed control at 100 ppm (Uncinula necator) | pest or weed control at 100 ppm [2, 3] | pest or weed control at 100 ppm [2, 4] | Dropline Mobility Test PUCCRT 1 DPM (Puccinia triticina) | Dropline Mobility Test PUCCRT 3 DCM (Puccinia triticina)
1 | CCCCCO[C@@H]1[C@@H](Cc2ccccc2)COC[C@H](NC(=O)c2nccc(OC)c2OCOC(C)=O)C(=O)O[C@H]1C [Compound 26] | 80 to 100% | 80 to 100% | 80 to 100% | 80 to 100% | B (More than 0-Less than 80) | B (More than 0-Less than 80)
2 | COc1ccnc(C(=O)N[C@H]2COC[C@H](Cc3ccccc3)[C@@H](OCCCc3ccccc3)[C@H](C)OC2=O)c1OCOC(C)=O [Compound 34] | 80 to 100% | 0 to 80% | 80 to 100% | 80 to 100% | B (More than 0-Less than 80) | –
3 | COC(=O)/C=C/O[C@@H]1[C@@H](Cc2ccccc2)COC[C@H](NC(=O)c2nccc(OC)c2OCOC(C)=O)C(=O)O[C@H]1C [Compound 36] | 80 to 100% | 0 to 80% | 80 to 100% | 80 to 100% | B (More than 0-Less than 80) | B (More than 0-Less than 80)
4 | COc1ccnc(C(=O)N[C@H]2COC[C@H](Cc3ccccc3)[C@@H](OC(=O)c3ccccc3)[C@H](C)OC2=O)c1OCOC(C)=O [Compound 37] | 80 to 100% | 0 to 80% | 80 to 100% | 80 to 100% | B (More than 0-Less than 80) | –
5 | COc1ccnc(C(=O)N[C@H]2COC[C@H](Cc3ccccc3)[C@@H](OC(=O)C3CC3)[C@H](C)OC2=O)c1OCOC(C)=O [Compound 38] | 80 to 100% | 0 to 80% | 80 to 100% | 80 to 100% | B (More than 0-Less than 80) | B (More than 0-Less than 80)
6 | COc1ccnc(C(=O)N[C@H]2COC[C@H](Cc3ccccc3)[C@@H](OC)[C@H](C)OC2=O)c1OCOC(C)=O [Compound 39] | 80 to 100% | 0 to 80% | 80 to 100% | 80 to 100% | A (80-100) | A (80-100)
7 | COc1ccnc(C(=O)N[C@H]2COC[C@H](Cc3ccccc3)[C@@H](Oc3ccccc3)[C@H](C)OC2=O)c1OCOC(C)=O [Compound 40] | 80 to 100% | 0 to 80% | 80 to 100% | 80 to 100% | B (More than 0-Less than 80) | B (More than 0-Less than 80)
